From PubChem BioAssay AID2060500 (Molecular Pharmacology Branch, DTP, NCI, 2025)

Tested on: 596521-263-R-J1-PDC complex spheroids, viability % of control
Assay: Anticancer human tumor 596521-263-R-J1-PDC patient-derived soft tissue sarcoma cell line growth inhibition [GQUAD]
Settings: for IC50: curve of first compound; for viability, T/C: stronger effect = lower value
Text: DNA G-quadruplex Stabilizer Agents in Combinations in Complex Spheroids
A high-throughput screen of multi-cell type tumor spheroids was designed to identify active combinations of DNA G-quadruplex stabilizer agents and targeted small molecules. Complex spheroids include a stromal component modeled by human endothelial cells (HUVEC) and fibroblasts modeled by human mesenchymal stem cells (MSCs). The concentration ranges selected for each drug and investigational agent were based upon clinically achievable concentrations if the clinical Cmax of the agent was known.
Compounds. The drugs and investigational agents: pidnarulex (CX-5461; NSC782164), APTO-253 (NSC789042), BRACO-19 (NSC847499), peposertib (NSC802822), ceralasertib (NSC780249), elimusertib (NSC800525), camonsertib (NSC841442), AZD-1390 (NSC803789), olaparib (NSC753686), talazoparib (NSC767125), ART-558 (NSC835418), sotorasib (NSC818433), MRTX-1133 (NSC836407), SN-38 (NSC673596), topotecan (NSC609699), etoposide (NSC141540), doxorubicin (NSC123127), gemcitabine (NSC613327), 5-fluorouracil (NSC19893), paclitaxel (NSC125973), vemurafenib (NSC761431), panobinostat (NSC761190), R-306465 (JNJ-16241199; NSC773264), adavosertib (NSC754352), TP-3654 (NSC805149), carboplatin (NSC241240), KSQ-4279 (NSC840948), and staurosporine (NSC755774) were obtained from the National Cancer Institute (NCI) Developmental Therapeutics Program Chemical Repository (34). The FDA-approved anticancer drug set is available from the NCI Developmental Therapeutics Program. […] The stock solutions were prepared in dimethyl sulfoxide (DMSO, Sigma-Aldrich, St. Louis, MO, cat. D2650) at 800-fold the tested concentration and stored at -70 degrees C prior to their use. All drugs and investigational agents were tested over a range starting from a high concentration at or near the clinical Cmax and decreasing in half-log increments. If the clinical Cmax for an agent had not been determined, the highest concentration tested was 10 microM.
2.3 Cell Culture. All cells were maintained in an incubator at 37 degrees C and 5% CO2 with 95% humidity. The PDC lines were cultured according to standard operating procedures established by the NCI PDMR. All PDCs were thawed and cultured in Matrigel-coated flasks prepared with a working solution of 1X Ham's F-12 nutrient mix, without supplementation (Invitrogen, cat. 11765054), 100 U/mL penicillin-streptomycin (Invitrogen, cat. 15140122), and 2.5% Matrigel (Corning Inc., cat. 354248) for the first three passages. The 857933-349-R-J2-PDC line was cultured in 6C/Colon 1B media, which includes advanced DMEM/F-12 (Thermo Fisher Scientific, cat. 12634028), 10 mM HEPES (Thermo Fisher Scientific, cat. 15630080), 1X GlutaMAX supplement (Thermo Fisher Scientific, cat. 35050061), 0.1 mg/mL primocin (InvivoGen, cat. ant-pm-2), 10% defined fetal bovine serum, heat inactivated (HyClone Laboratories Inc., cat. SH30070.03HI), 50% L-WRN conditioned media (ATCC, cat. CRL-3276), 1.25 mM N-Acetyl-L-cysteine (Sigma-Aldrich, cat. A9165), 10 mM nicotinamide (Sigma-Aldrich, cat. N0636), 1X B-27 supplement (Thermo Fisher Scientific, cat. 17504044), 1X N-2 supplement (Thermo Fisher Scientific, cat. 17502048), 10 microM Y-27632 dihydrochloride (Tocris Bioscience, cat. 1254), and 50 ng/mL human EGF recombinant protein (Thermo Fisher Scientific, cat. PHG0311). The 485176-168-R4-J1-PDC line was cultured in Panc media, which includes all 6C/Colon 1B media components plus 100 ng/mL human FGF-10 (Thermo Fisher Scientific, cat. 100-26), 500 nM SB-431542 (Selleckchem, cat. S1067), and gastrin (Tocris, cat. 3006).
[…]

[1] = second compound 0.0316 µM, first compound 0.0316 µM
[2] = second compound 0.0316 µM, first compound 0.1 µM
[3] = second compound 0.0316 µM, first compound 0.316 µM
[4] = second compound 0.0316 µM, first compound 1 µM
[5] = second compound 0.0316 µM, first compound 3.16 µM
[6] = second compound 0.0316 µM, first compound 10 µM
[7] = second compound 0.1 µM, first compound 0.0316 µM
[8] = second compound 0.1 µM, first compound 0.1 µM
[9] = second compound 0.1 µM, first compound 0.316 µM
[10] = second compound 0.1 µM, first compound 1 µM
[11] = second compound 0.1 µM, first compound 3.16 µM
[12] = second compound 0.1 µM, first compound 10 µM
[13] = second compound 0.316 µM, first compound 0.0316 µM
[14] = second compound 0.316 µM, first compound 0.1 µM
[15] = second compound 0.316 µM, first compound 0.316 µM
[16] = second compound 0.316 µM, first compound 1 µM
[17] = second compound 0.316 µM, first compound 3.16 µM
[18] = second compound 0.316 µM, first compound 10 µM
[19] = second compound 1 µM, first compound 0.0316 µM
[20] = second compound 1 µM, first compound 0.1 µM
[21] = second compound 1 µM, first compound 0.316 µM
[22] = second compound 1 µM, first compound 1 µM
[23] = second compound 1 µM, first compound 3.16 µM
[24] = second compound 1 µM, first compound 10 µM
[25] = second compound 3.16 µM, first compound 0.0316 µM
[26] = second compound 3.16 µM, first compound 0.1 µM
[27] = second compound 3.16 µM, first compound 0.316 µM
[28] = second compound 3.16 µM, first compound 1 µM
[29] = second compound 3.16 µM, first compound 3.16 µM
[30] = second compound 3.16 µM, first compound 10 µM
[31] = second compound 10 µM, first compound 0.0316 µM
[32] = second compound 10 µM, first compound 0.1 µM
[33] = second compound 10 µM, first compound 0.316 µM
[34] = second compound 10 µM, first compound 1 µM
[35] = second compound 10 µM, first compound 3.16 µM
[36] = second compound 10 µM, first compound 10 µM
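Also: spheroids exposed to drugs for 7 days before viability reading.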

With `CC1COCCN1c1cc(C2(S(C)(=N)=O)CC2)nc(-c2ccnc3[nH]ccc23)n1` (centres undefined) + CN(C)c1ccc(Nc2c3ccc(NC(=O)CCN4CCCC4)cc3nc3cc(NC(=O)CCN4CCCC4)ccc23)cc1 the IC50 (second compound 0.0316 µM) was greater than 10 µM, the IC50 (second compound 0.1 µM) was 9.59 µM and the IC50 (second compound 0.316 µM) was greater than 10 µM. The IC50 (second compound 1 µM) was greater than 10 µM, the IC50 (second compound 3.16 µM) was greater than 10 µM and the IC50 (second compound 10 µM) was 4.38 µM. For the same compound, the viability, T/C [1] was 93.1%, the viability, T/C [2] was 97.1% and the viability, T/C [3] was 86.9%. The viability, T/C [4] was 77.9%, the viability, T/C [5] was 62.9% and the viability, T/C [6] was 52.3%. For the same compound, the viability, T/C [7] was 97.5%, the viability, T/C [8] was 97.7% and the viability, T/C [9] was 95.1%. The viability, T/C [10] was 71.5%, the viability, T/C [11] was 64.8% and the viability, T/C [12] was 48%. The viability, T/C [13] was 96.6%, the viability, T/C [14] was 90.8% and the viability, T/C [15] was 87.3%. The viability, T/C [16] was 85.1%, the viability, T/C [17] was 54.2% and the viability, T/C [18] was 51.2%. It also gave a viability, T/C [19] of 90.4%, a viability, T/C [20] of 103% and a viability, T/C [21] of 94.1%. The viability, T/C [22] was 76.4%, the viability, T/C [23] was 64.3% and the viability, T/C [24] was 57.3%. For the same compound, the viability, T/C [25] was 94.5%, the viability, T/C [26] was 83.1% and the viability, T/C [27] was 78.2%. It also gave a viability, T/C [28] of 80%, a viability, T/C [29] of 61.4% and a viability, T/C [30] of 50%. The viability, T/C [31] was 66.8%, the viability, T/C [32] was 67.1% and the viability, T/C [33] was 65.6%. For the same compound, the viability, T/C [34] was 52.8%, the viability, T/C [35] was 53.8% and the viability, T/C [36] was 44.9%.

`COc1ccc([C@@H](O)c2cc(-c3ncnc4cc(N5CCOCC5)ccc34)c(F)cc2Cl)nn1` + CN(C)c1ccc(Nc2c3ccc(NC(=O)CCN4CCCC4)cc3nc3cc(NC(=O)CCN4CCCC4)ccc23)cc1 showed an IC50 (second compound 0.0316 µM) of 7.69 µM, an IC50 (second compound 0.1 µM) of 9.12 µM and an IC50 (second compound 0.316 µM) greater than 10 µM. It also gave an IC50 (second compound 1 µM) of 7.49 µM, an IC50 (second compound 3.16 µM) greater than 10 µM and an IC50 (second compound 10 µM) of 1.16 µM. For the same compound, the viability, T/C [1] was 95.1%, the viability, T/C [2] was 91.2% and the viability, T/C [3] was 97.5%. The viability, T/C [4] was 88.4%, the viability, T/C [5] was 67.7% and the viability, T/C [6] was 44.8%. For the same compound, the viability, T/C [7] was 89.5%, the viability, T/C [8] was 101% and the viability, T/C [9] was 91.9%. For the same compound, the viability, T/C [10] was 77.1%, the viability, T/C [11] was 65.6% and the viability, T/C [12] was 48.1%. For the same compound, the viability, T/C [13] was 96.1%, the viability, T/C [14] was 94.2% and the viability, T/C [15] was 81.1%. It also gave a viability, T/C [16] of 81.8%, a viability, T/C [17] of 64.1% and a viability, T/C [18] of 51.8%. It also gave a viability, T/C [19] of 93.8%, a viability, T/C [20] of 84.3% and a viability, T/C [21] of 93.9%. It also gave a viability, T/C [22] of 83.4%, a viability, T/C [23] of 63.2% and a viability, T/C [24] of 45.6%. For the same compound, the viability, T/C [25] was 87.4%, the viability, T/C [26] was 87.5% and the viability, T/C [27] was 84.7%. For the same compound, the viability, T/C [28] was 66.1%, the viability, T/C [29] was 64.1% and the viability, T/C [30] was 49.5%. It also gave a viability, T/C [31] of 70.5%, a viability, T/C [32] of 56.7% and a viability, T/C [33] of 59.1%. It also gave a viability, T/C [34] of 48.4%, a viability, T/C [35] of 49.4% and a viability, T/C [36] of 31.6%.
